Reference: patent US20240109897A1, “MODULATORS OF FPR1 AND METHODS OF USING THE SAME” (BEIJING TIANTAN HOSPITAL, priority 2021, published 2024)

Tests used:
FPR1 = biological target: T1, FPR1 (UniProt P21462); assay: fMLP-FPR1 mediated calcium signaling assay in FPR1-overexpressing 293T cells; type: cell-based, human or mouse; details: inhibition of fMLP-FPR1 mediated intracellular calcium change; hFPR1 or mFPR1 overexpressing 293T cells; 10 min preincubation; INDO-1 AM, FACS
T1 sequence (P21462 1-350): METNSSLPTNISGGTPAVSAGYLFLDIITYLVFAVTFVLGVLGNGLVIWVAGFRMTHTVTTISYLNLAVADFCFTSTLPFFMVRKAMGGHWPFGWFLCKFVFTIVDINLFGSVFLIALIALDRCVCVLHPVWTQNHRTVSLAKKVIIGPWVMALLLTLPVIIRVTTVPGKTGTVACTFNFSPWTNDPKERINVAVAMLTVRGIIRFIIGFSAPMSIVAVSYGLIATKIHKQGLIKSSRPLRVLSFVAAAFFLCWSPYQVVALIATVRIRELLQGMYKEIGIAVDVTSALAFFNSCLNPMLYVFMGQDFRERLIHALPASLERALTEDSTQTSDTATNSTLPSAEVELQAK
Experimental: The effects of the compounds of this disclosure on regulating the FPR1-mediated cell signaling were measured by monitoring the cellular calcium level change, as illustrated by the exemplary examples in Table 2. The dose response of the illustrated examples are reported categorically using the following ranking criteria: *** (IC50≤100 nM); ** (IC50≥100 to ≤1000 nM); * (IC50≥1000 to ≤10,000 nM); N.D.—not detected.
The coding DNA sequence (CDS) of human FPR1 (NM_001193306) and mouse FPR1 (NM_013521) were cloned and inserted to the lentivirus vector GV367 (Vector information:http://www.genechem.com.cn/index/supports/tool_search.html?keywords=GV367) under the conduction of pCMV promoter. 293T cells were cultured in H-DMEM supplemented with 10% FBS and 1% penicillin-streptomycin (PS) at 37° C. in 5% CO2 Incubator. 293T cells were transfected with lentivirus vector GV367 containing the CDS of human or mouse FPR1 for 24 h and then cultured with complete medium for another 48 h. At 72 h after transfected, cells were passaged, and 5 μg/ml puromycin was added to screen FPR1-transfected 293T cells. The overexpression of human or mouse FPR1 in 293 T cells were detected by immunostaining with anti-mouse or human FPR1 antibodies (Biolegend or Antibody Online).
Cultured hFPR1 or mFPR1 overexpressing 293T cells were labeled with 1 μM INDO-1 AM calcium sensor dye (eBioscience) for 30 min at 37° C. After washed with 1×PBS, cells were resuspended with H-DMEM containing 3% FBS, and were maintained on ice prior to the measurement of intracellular calcium concentration. To measure the inhibitory potency of designed potential FPR1 antagonists, hFPR1 or mFPR1 overexpressing 293T cells were incubated with the compound for 10 min at room temperature. The cytoplasmic calcium levels were then measured by FACS Aria III at 37° C. prior to and after the stimulation of fMLP. We defined the immunofluorescence intensity of indo-1 AM before adding fMLP as the basal value, and the intensity at the peak immunofluorescence reduction after adding fMLP as minimum value for each sample. The change of intracellular calcium was calculated as follow: (basal value−minimum value)/basal value×100%. The IC50 of each compound in inhibiting fMLP-FPR1 mediated intracellular calcium concentration in 293T cells were automatically calculated with Prism 8.0.2 software (GraphPad) after inputting a series of change of intracellular calcium at multiple concentration gradients (from 0 nM to 100 μM).

ICH mice = assay: MRI lesion, hematoma and perihematomal edema volume in intracerebral hemorrhage (ICH) mouse model; type: in vivo; details: brain MRI, vs vehicle
Description: The intracerebral hemorrhage (ICH) model in mice was used to illustrate the protective benefits of the compounds of this disclosure, and FIG. 1 depicts the procedure in preparing this model. ICH was induced in C57 B/L6 male mice by the injection of an autologous blood or collagenase as previously described (Lauer et al., Circulation 124: 1654-1662 (2011); Rynkowski et al., Nat. Protoc. 3:122-128 (2008)). Mice were anesthetized using isoflurane inhalation and fixed on a stereotactic frame. A burr hole was drilled on the right side of the skull at 2.3 mm lateral to the midline and 0.5 mm anterior to the bregma. For the autologous blood model, 30 μl of non-heparinized blood was withdrawn from the angular vein. The first 5 μl blood was injected at a depth of 3 mm beneath the hole, and the rest 25 μl blood were injected at 3.7 mm beneath the hole with a rate of 1 μl/min. In the collagenase model, 0.038 U of the bacterial collagenase (in 0.5 μl saline) was infused to the striatum (0.5 mm anterior, 2.3 mm right lateral, and 3.5 mm deep relative to bregma) at a speed of 0.5 μl/min. Mice on the sham control were injected with an equal volume of saline. Throughout the procedure, the body temperature was maintained at 37° C. with a homeothermic blanket. After the surgery, mice were under observation with free access to food and water. […]
The total lesion volume was measured on the 7T small-animal MM scanner (Bruker, Corp., USA) as described (Li et al., 2017). The T2-weighted water imaging was recorded with following parameters (repetition time (TR)=4500 ms, echo time (TE)=65.5 ms, field of view (FOV)=28×28 mm^2, image matrix=256×256, at 0.5-mm slice thickness). […] The volumes were manually outlined and calculated by multiplying the sum of the volume by the distance between sections (0.5 mm) using MIPAV software. PHE volumes were calculated as total lesion volume minus hematoma volume. MRI data were analyzed by two investigators blinded to experimental groups.

Row | IC50 (FPR1) [nM] | Compound | peri-hematomal edema (ICH mice; at 3 days after ICH) | hematoma size (ICH mice)
1 | 100 to 1000 | O=C1c2n[nH]c(-c3cc(Cl)ccc3O)c2C(c2ccc(C(F)(F)F)cc2)N1C1CCOCC1 (racemic) [Compound 9, Rac-3-(5-chloro-2-hydroxyphenyl)-5-(tetrahydro-2H-pyran-4-yl)-4-(4-(trifluoromethyl)phenyl)-4,5-dihydropyrrolo[3,4-c]pyrazol-6(2H)-one] | – | –
2 | 1000 to 10000 | O=C1c2n[nH]c(-c3cc(F)ccc3O)c2C(c2ccc(Cl)cc2)N1C1CCOCC1 (racemic) [Compound 10, Rac-4-(4-chlorophenyl)-3-(5-fluoro-2-hydroxyphenyl)-5-(tetrahydro-2H-pyran-4-yl)-4,5-dihydropyrrolo[3,4-c]pyrazol-6(2H)-one] | – | –
3 | 1000 to 10000 | O=C1c2n[nH]c(-c3cc(F)ccc3O)c2C(c2ccc(C(F)(F)F)cc2)N1C1CCOCC1 (racemic) [Compound 13, rac-3-(5-fluoro-2-hydroxyphenyl)-5-(tetrahydro-2H-pyran-4-yl)-4-(4-(trifluoromethyl)phenyl)-4,5-dihydropyrrolo[3,4-c]pyrazol-6(2H)-one] | – | –
4 | 1000 to 10000 | O=C1c2n[nH]c(-c3ccccn3)c2C(c2ccc(Cl)cc2)N1C1CCOCC1 (racemic) [Compound 14, Rac-4-(4-chlorophenyl)-3-(pyridin-2-yl)-5-(tetrahydro-2H-pyran-4-yl)-4,5-dihydropyrrolo[3,4-c]pyrazol-6(2H)-one] | – | –
5 | 1000 to 10000 | O=C1c2n[nH]c(-c3cc(F)ccc3O)c2[C@H](c2ccc(Cl)cc2)N1C1CCOCC1 (single isomer, unassigned) [Compound 11] | – | –
6 | 1000 to 10000 | O=C1c2n[nH]c(-c3cc(F)ccc3O)c2[C@@H](c2ccc(Cl)cc2)N1C1CCOCC1 (single isomer, unassigned) [Compound 12] | – | –

Further lines, the molecule ahead of its results:

Row | Compound | IC50 (FPR1) [nM] | peri-hematomal edema (ICH mice; at 3 days after ICH) | hematoma size (ICH mice)
7 | CO[C@H]1CC[C@@H](N2C(=O)c3n[nH]c(-c4cc(C)ccc4O)c3C2c2ccc(C(F)(F)F)cc2)CC1 (mixture of isomers) [Compound 7, rac-3-(2-hydroxy-5-methylphenyl)-5-((1S,4S)-4-methoxycyclohexyl)-4-(4-(trifluoromethyl)phenyl)-4,5-dihydropyrrolo[3,4-c]pyrazol-6(2H)-one] | 1000 to 10000 | – | –
8 | O=C1c2n[nH]c(-c3ccccn3)c2C(c2ccc(Cl)cc2)N1C1CCOCC1 (racemic) [Comp14] | – | significantly reduced | no difference
9 | Cc1ccc(O)c(-c2[nH]nc3c2C(c2ccc(C(F)(F)F)cc2)N(C2CCNCC2)C3=O)c1 (racemic) [Compound 4, Rac-3-(2-hydroxy-5-methylphenyl)-5-(piperidin-4-yl)-4-(4-(trifluoromethyl)phenyl)-4,5-dihydropyrrolo[3,4-c]pyrazol-6(2H)-one] | 1000 to 10000 | – | –
10 | CC(=O)N1CCC(N2C(=O)c3n[nH]c(-c4cc(C)ccc4O)c3C2c2ccc(C(F)(F)F)cc2)CC1 (racemic) [Compound 5, Rac-5-(1-acetylpiperidin-4-yl)-3-(2-hydroxy-5-methylphenyl)-4-(4-(trifluoromethyl)phenyl)-4,5-dihydropyrrolo[3,4-c]pyrazol-6(2H)-one] | 100 to 1000 | – | –
11 | COC1CCC(N2C(=O)c3n[nH]c(-c4cc(C)ccc4O)c3C2c2ccc(C(F)(F)F)cc2)CC1 (racemic) [Compound 8, Rac-3-(2-hydroxy-5-methylphenyl)-5-((1r,4r)-4-methoxycyclohexyl)-4-(4-(trifluoromethyl)phenyl)-4,5-dihydropyrrolo[3,4-c]pyrazol-6(2H)-one] | 1000 to 10000 | – | –
12 | Cc1ccc(O)c(-c2[nH]nc3c2[C@H](c2ccc(C(F)(F)F)cc2)N(C2CCOCC2)C3=O)c1 (single isomer, unassigned) [Compound 2] | 100 to 1000 | – | –
13 | Cc1ccc(O)c(-c2[nH]nc3c2[C@@H](c2ccc(C(F)(F)F)cc2)N(C2CCOCC2)C3=O)c1 (single isomer, unassigned) [Compound 3] | 1000 to 10000 | – | –
